These compounds were tested on normal human melanocyte (assay: UVB-induced cell activation inhibition test using normal human melanocyte). Conditions: formazan (MTT) production ratio, UVB-irradiated DMSO negative control = 100%; UVB 5 mJ/cm^2; 100 mM in DMSO diluted 1,000 times; conditioned medium of normal human keratinocyte; mean of 3 samples.
Type: cell-based
Procedure: The inhibitory effect of the compounds on the activation of melanocyte by activating factor produced and released from normal human keratinocyte by the ultraviolet B (UVB) was evaluated by using the index of the cell proliferation of normal human melanocyte.
Normal human keratinocyte (Kurabo Industries, Ltd.) were seeded by Humedia-KG2 medium (Kurabo Industries, Ltd.) at a concentration of 10×10^4 cells/well in 24-well plate. Then, cells were cultured for 24 hours.
The compound was dissolved at a concentration of 100 mM in DMSO, which was diluted 1,000 times with Humedia-KG2 medium and used as a sample solution. As for the positive control group, tranexamic acid was dissolved at a concentration of 100 mM in DMSO, which was diluted 1,000 times with Humedia-KG2 medium as a positive control sample solution. As for the negative control group, DMSO was diluted 1,000 times with Humedia-KG2 medium as a negative control sample solution.
The medium of normal human keratinocyte was exchanged with Humedia-KG2 medium (sample solution) containing the compound at a predetermined concentration and cells were cultured for further 24 hours. After that, the medium was exchanged with PBS (phosphate buffered saline), and cells were irradiated with the ultraviolet B (UVB) at 5 mJ/cm^2 by using an ultraviolet lamp (FL20S•E-30/DMR, Toshiba Medical Supply Co., Ltd.) as a light source. After the ultraviolet radiation, PBS was exchanged with the sample solution. Cells were cultured for further 24 hours, and then the conditioned medium was collected. Normal human melanocyte cells were seeded at the concentration of 3×10^4 cells/well in 96-well plate by a medium of Medium 254 (Kurabo Industries, Ltd.). Cells were cultured for 24 hours. After that, the medium was exchanged with the conditioned medium collected from normal human keratinocyte, and cells were cultured for further 24 hours. After 24 hours, the medium was exchanged with Humedia-KG2 medium containing 0.5 mg/mL of 3-(4,5-dimethyl-2-thiazoyl)-2,5-diphenyl-2H-tetrazolium bromide (MTT), and cultured for 3 hour.
The formazan amount was measured by the absorbances at 570 nm and 690 nm of cell lysate lysed with 2-propanol using a microplate reader (Benchmark Plus, Bio-Rad) by subtracting the absorbance at 690 nm from the absorbance at 570 nm.
The inhibitory effect of each compounds on melanocyte proliferation was calculated as the formazan production ratio (%) when the absorbance of negative control group, which was added DMSO and UVB irradiated, was defined as 100%.
Therefore, the small production ratio of formazan means that the inhibitory effect of the compounds is strong against the activation of melanocyte by the melanocyte activating factor released form keratinocyte.

| Compound | Melanocyte proliferation ratio Average (%) |
| --- | --- |
| Cc1ccc(C(=O)NC(CCS(=O)(=O)O)C(=O)O)cc1 (racemic) [Compound 6, N-(p-toluoyl)homocysteic acid] | 71.3 |
| Cc1ccccc1C(=O)N[C@@H](CS(=O)(=O)O)C(=O)O [L-Isomer of Compound 1, N-(o-Toluoyl)-L-cysteic acid] | 73.7 |
| Cc1cccc(C(=O)N[C@@H](CS(=O)(=O)O)C(=O)O)c1 [L-Isomer of Compound 2, N-(m-toluoyl)cysteic acid] | 77.0 |
| Cc1ccc(C(=O)N[C@@H](CS(=O)(=O)O)C(=O)O)cc1 [L-Isomer of Compound 3, N-(p-toluoyl)cysteic acid] | 58.4 |
| COc1ccc(C(=O)N[C@@H](CS(=O)(=O)O)C(=O)O)cc1 [L-Isomer of Compound 4, N-(p-methoxybenzoyl)cysteic acid] | 65.6 |
| O=C(N[C@@H](CS(=O)(=O)O)C(=O)O)c1ccc(-c2ccccc2)cc1 [L-Isomer of Compound 5, N-(4-phenylbenzoyl)cysteic acid] | 79.0 |
| NC[C@H]1CC[C@H](C(=O)O)CC1 [Tranexamic acid, reference compound] | 80.9 |

What follows are compounds tested on pigmented guinea pigs (assay: Ultraviolet ray-induced pigmentation suppression test using guinea pigs). Conditions: 0.5% (w/v) in ethanol, 30 μL once a day for 6 weeks; L* on 43rd day minus L* before UV (300 mJ/cm^2); average ± standard deviation of 8 animals; solvent control −10.07 ± 0.78.
Type: in vivo, guinea pig
Excerpt: The hair of the dorsal skin of each of eight pigmented guinea pigs was removed and shaved using an electrical hair clipper and shaver, and each of the sites was covered with a black cloth having a total of four (two on the top and bottom and two on the right and left) irradiation windows with a size of 2×2 cm, and then irradiated with ultraviolet rays of 300 mJ/cm^2 using FL20S•E30 lamp as a light source. The operation was repeated on days 1, 3, 5, and 8 after the start of the test to induce pigmentation on the four test sites. Compound 3 was dissolved in ethanol at a concentration of 0.5% (w/v) to prepare samples for application. Further, as a control, ethanol was used alone as a sample for application. On the 1st day of the test after the ultraviolet radiation, the application of samples was started. […] The skin brightness (L* value) of each of the test sites was measured by a colorimeter (CR-200, Konica Minolta Holdings, Inc.) before the ultraviolet radiation on the day of the start of application (day 1) and after 6 weeks (on the 43rd day of the test), and a ΔL* value was calculated by subtracting an L* value before the ultraviolet radiation from the L* value on 43rd day of the test. […] Therefore, it can be evaluated that, as the ΔL* value becomes larger (high numerical value), pigmentation is more inhibited.

| Compound | ΔL* value |
| --- | --- |
| Cc1ccc(C(=O)NC(CS(=O)(=O)O)C(=O)O)cc1 [L-Isomer of Compound 3, N-(p-toluoyl)cysteic acid] | −8.88 ± 0.54 |

Same assay, conditions: concentration of 0.5%, applied to the skin

| Compound | suppression of ultraviolet-induced pigmentation (in words) |
| --- | --- |
| Cc1ccc(C(=O)NC(CS(=O)(=O)O)C(=O)O)cc1 [L-Isomer of Compound 3, N-(p-toluoyl)cysteic acid] | clearly suppresses the pigmentation |

Source: patent US9066914B2, “Prophylactic or ameliorating agent for pigmentation” (POLA CHEMICAL INDUSTRIES INC., priority 2010, dated 2015)
